Data: publication PMC10648852, “Molecular drivers of resistance to sulbactam-durlobactam in contemporary clinical isolates of Acinetobacter baumannii” (Antimicrobial Agents and Chemotherapy, 2023)
Like-named read-outs stand apart in the source and are kept apart here.

Legend:
Experiment in all cases: microbe, parasite or virus in culture
[1] = tested on: A. baumannii clinical isolates; type: cell-based; details: Acinetobacter baumannii
Outline: (§1)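 Broth microdilution MICs following CLSI methods, interpreted with CLSI breakpoints where available. Sulbactam tested as twofold dilutions combined with fixed 4 µg/mL durlobactam.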

[2] = tested on: A. pittii clinical isolates; type: cell-based; details: Acinetobacter pittii
Outline: as §1

[3] = tested on: A. nosocomialis clinical isolate; type: cell-based; details: Acinetobacter nosocomialis, isolate ARC7023 (IHMA 2118812), France, BSI, 2019, read-out: MIC
Outline: as §1

[4] = tested on: ABC clinical isolates with SUL-DUR MIC > 4 µg/mL; type: cell-based, Acinetobacter baumannii-calcoaceticus complex
Outline: as §1

C[C@@H](O)[C@H]1C(=O)N2C(C(=O)O)=C(S[C@@H]3CN[C@H](C(=O)N(C)C)C3)[C@H](C)[C@H]12 [meropenem]
MIC ([1]; isolate ARC6644 (IHMA 1420327), Mexico, UTI, 2016, read-out: MIC): 64 µg/mL
MIC ([1]; isolate ARC6645 (IHMA 1435703), France, UTI, 2016, read-out: MIC): > 64 µg/mL
MIC ([1]; isolate ARC6646 (IHMA 1484127), United States, RTI, 2016, read-out: MIC): 64 µg/mL
MIC ([1]; isolate ARC6647 (IHMA 1386786), Argentina, RTI, 2016, read-out: MIC): > 64 µg/mL
MIC ([1]; isolate ARC6648 (IHMA 1407634), Spain, RTI, 2016, read-out: MIC): > 64 µg/mL
MIC ([1]; isolate ARC6650 (IHMA 1457337), Argentina, RTI, 2016, read-out: MIC): 64 µg/mL
MIC ([1]; isolate ARC6652 (IHMA 1465642), Belgium, RTI, 2016, read-out: MIC): > 64 µg/mL
MIC ([1]; isolate ARC6653 (IHMA 1308777), Vietnam, RTI, 2016, read-out: MIC): > 64 µg/mL
MIC ([1]; isolate ARC6799 (IHMA 1562935), Spain, UTI, 2017, read-out: MIC): 64 µg/mL
MIC ([1]; isolate ARC6800 (IHMA 1557526), Turkey, RTI, 2017, read-out: MIC): 64 µg/mL
MIC ([1]; isolate ARC6801 (IHMA 1662094), Thailand, RTI, 2017, read-out: MIC): > 64 µg/mL
MIC ([1]; isolate ARC6802 (IHMA 1557073), Spain, UTI, 2017, read-out: MIC): 64 µg/mL
MIC ([1]; isolate ARC6803 (IHMA 1589408), Belgium, UTI, 2017, read-out: MIC): > 64 µg/mL
MIC ([1]; isolate ARC6805 (IHMA 1558650), United States, RTI, 2017, read-out: MIC): 64 µg/mL
MIC ([1]; isolate ARC6808 (IHMA 1557168), Spain, RTI, 2017, read-out: MIC): 64 µg/mL
MIC ([1]; isolate ARC6809 (IHMA 1699528), Guatemala, RTI, 2017, read-out: MIC): > 64 µg/mL
MIC ([1]; isolate ARC6810 (IHMA 1699548), Guatemala, RTI, 2017, read-out: MIC): > 64 µg/mL
MIC ([1]; isolate ARC6812 (IHMA 1699530), Guatemala, RTI, 2017, read-out: MIC): > 64 µg/mL
MIC ([1]; isolate ARC6813 (IHMA 1699543), Guatemala, UTI, 2017, read-out: MIC): > 64 µg/mL
MIC ([1]; isolate ARC6814 (IHMA 1699512), Guatemala, RTI, 2017, read-out: MIC): > 64 µg/mL
MIC ([1]; isolate ARC6815 (IHMA 1699513), Guatemala, RTI, 2017, read-out: MIC): > 64 µg/mL
MIC ([1]; isolate ARC6816 (IHMA 1699521), Guatemala, RTI, 2017, read-out: MIC): > 64 µg/mL
MIC ([1]; isolate ARC6817 (IHMA 1699523), Guatemala, RTI, 2017, read-out: MIC): > 64 µg/mL
MIC ([1]; isolate ARC6818 (IHMA 1683261), Thailand, RTI, 2017, read-out: MIC): > 64 µg/mL
MIC ([1]; isolate ARC6819 (IHMA 1683267), Thailand, RTI, 2017, read-out: MIC): > 64 µg/mL
MIC ([1]; isolate ARC6820 (IHMA 1647876), Argentina, RTI, 2017, read-out: MIC): 64 µg/mL
MIC ([1]; isolate ARC6821 (IHMA 1699517), Guatemala, RTI, 2017, read-out: MIC): > 64 µg/mL
MIC ([1]; isolate ARC6822 (IHMA 1637626), Guatemala, RTI, 2017, read-out: MIC): > 64 µg/mL
MIC ([1]; isolate ARC6823 (IHMA 1620872), Greece, SSSI, 2017, read-out: MIC): > 64 µg/mL
MIC ([1]; isolate ARC6824 (IHMA 1625487), Argentina, BSI, 2017, read-out: MIC): > 64 µg/mL
MIC ([1]; isolate ARC6937 (IHMA 1562926), Spain, UTI, 2017, read-out: MIC): 64 µg/mL
MIC ([1]; isolate ARC6950 (IHMA 1820064), Israel, RTI, 2018, read-out: MIC): > 64 µg/mL
MIC ([1]; isolate ARC6953 (IHMA 1909827), Turkey, IAI, 2018, read-out: MIC): > 64 µg/mL
MIC ([1]; isolate ARC6954 (IHMA 1838192), Guatemala, SSSI, 2018, read-out: MIC): > 64 µg/mL
MIC ([1]; isolate ARC6955 (IHMA 1825425), United States, RTI, 2018, read-out: MIC): 64 µg/mL
MIC ([1]; isolate ARC7008 (IHMA 2009813), Thailand, BSI, 2019, read-out: MIC): > 64 µg/mL
MIC ([1]; isolate ARC7009 (IHMA 2043611), United States, UTI, 2019, read-out: MIC): > 64 µg/mL
MIC ([1]; isolate ARC7010 (IHMA 2043398), United States, RTI, 2019, read-out: MIC): > 64 µg/mL
MIC ([1]; isolate ARC7011 (IHMA 2104553), Germany, RTI, 2019, read-out: MIC): > 64 µg/mL
MIC ([1]; isolate ARC7012 (IHMA 2010001), Thailand, RTI, 2019, read-out: MIC): > 64 µg/mL
MIC ([1]; isolate ARC7013 (IHMA 1962831), Argentina, RTI, 2019, read-out: MIC): > 64 µg/mL
MIC ([1]; isolate ARC7014 (IHMA 2045328), Guatemala, IAI, 2019, read-out: MIC): > 64 µg/mL
MIC ([1]; isolate ARC7015 (IHMA 2045327), Guatemala, UTI, 2019, read-out: MIC): > 64 µg/mL
MIC ([1]; isolate ARC7016 (IHMA 2148441), Brazil, BSI, 2019, read-out: MIC): > 64 µg/mL
MIC ([1]; isolate ARC7017 (IHMA 2148446), Brazil, BSI, 2019, read-out: MIC): > 64 µg/mL
MIC ([1]; isolate ARC7018 (IHMA 2045454), Guatemala, IAI, 2019, read-out: MIC): > 64 µg/mL
MIC ([1]; isolate ARC7019 (IHMA 2114463), Thailand, RTI, 2019, read-out: MIC): > 64 µg/mL
MIC ([1]; isolate ARC7020 (IHMA 2045326), Guatemala, RTI, 2019, read-out: MIC): > 64 µg/mL
MIC ([1]; isolate ARC7021 (IHMA 1966347), Guatemala, RTI, 2019, read-out: MIC): > 64 µg/mL
MIC ([1]; isolate ARC7022 (IHMA 2045319), Guatemala, IAI, 2019, read-out: MIC): > 64 µg/mL
MIC ([1]; isolate ARC7024 (IHMA 2059448), Turkey, RTI, 2019, read-out: MIC): > 64 µg/mL
MIC ([1]; isolate ARC7025 (IHMA 2002121), Spain, RTI, 2019, read-out: MIC): 64 µg/mL
MIC ([1]; isolate ARC7026 (IHMA 2104494), Guatemala, BSI, 2019, read-out: MIC): > 64 µg/mL
MIC ([1]; isolate ARC7082 (IHMA 2160640), Belgium, BSI, 2020, read-out: MIC): > 64 µg/mL
MIC ([1]; isolate ARC7083 (IHMA 2163687), United States, RTI, 2020, read-out: MIC): 64 µg/mL
MIC ([1]; isolate ARC7084 (IHMA 2189596), Germany, RTI, 2020, read-out: MIC): > 64 µg/mL
MIC ([1]; isolate ARC7085 (IHMA 2205747), Guatemala, IAI, 2020, read-out: MIC): > 64 µg/mL
MIC ([1]; isolate ARC7086 (IHMA 2207563), Israel, RTI, 2020, read-out: MIC): 32 µg/mL
MIC ([1]; isolate ARC7088 (IHMA 2215554), Turkey, BSI, 2020, read-out: MIC): > 64 µg/mL
MIC ([1]; isolate ARC7089 (IHMA 2240345), Argentina, BSI, 2020, read-out: MIC): 64 µg/mL
MIC ([1]; isolate ARC7090 (IHMA 2244410), Poland, RTI, 2020, read-out: MIC): > 64 µg/mL
MIC ([1]; isolate ARC7091 (IHMA 2244564), Australia, RTI, 2020, read-out: MIC): > 64 µg/mL
MIC ([1]; isolate ARC7092 (IHMA 2258772), United States, BSI, 2020, read-out: MIC): > 64 µg/mL
MIC ([1]; isolate ARC7093 (IHMA 2258783), United States, RTI, 2020, read-out: MIC): > 64 µg/mL
MIC ([1]; isolate ARC7094 (IHMA 2296423), Turkey, RTI, 2020, read-out: MIC): 64 µg/mL
MIC ([1]; isolate ARC7095 (IHMA 2320843), Turkey, BSI, 2020, read-out: MIC): 32 µg/mL
MIC ([1]; isolate ARC7156 (IHMA 2455450), Greece, RTI, 2021, read-out: MIC): > 64 µg/mL
MIC ([1]; isolate ARC7158 (IHMA 2523738), Italy, BSI, 2021, read-out: MIC): > 64 µg/mL
MIC ([1]; isolate ARC7159 (IHMA 2456229), Malaysia, RTI, 2021, read-out: MIC): > 64 µg/mL
MIC ([1]; isolate ARC7160 (IHMA 2458626), Thailand, RTI, 2021, read-out: MIC): > 64 µg/mL
MIC ([1]; isolate ARC7161 (IHMA 2429252), Ukraine, RTI, 2021, read-out: MIC): 64 µg/mL
MIC ([1]; isolate ARC7162 (IHMA 2411847), United States, BSI, 2021, read-out: MIC): > 64 µg/mL
MIC ([1]; isolate ARC7163 (IHMA 2477704), United States, BSI, 2021, read-out: MIC): > 64 µg/mL
MIC ([2]; isolate ARC6949 (IHMA 1898982), Romania, RTI, 2018, read-out: MIC): > 64 µg/mL
MIC ([2]; isolate ARC6951 (IHMA 1776233), Philippines, RTI, 2018, read-out: MIC): > 64 µg/mL
MIC ([2]; isolate ARC6952 (IHMA 1899008), Romania, RTI, 2018, read-out: MIC): > 64 µg/mL
MIC ([2]; isolate ARC7087 (IHMA 2212062), Colombia, BSI, 2020, read-out: MIC): > 64 µg/mL
MIC [3]: > 64 µg/mL
%NS (% non-susceptibility) ([4]; 64 non-clonal ABC isolates, 2023 CLSI breakpoints plus FDA breakpoint of 4 µg/mL for SUL-DUR): 100%
MIC50 ([4]; Acinetobacter): > 64 µg/mL
MIC90 ([4]; Acinetobacter): > 64 µg/mL
MIC ([4]; Acinetobacter, read-out: MIC Max): > 64 µg/mL
MIC ([4]; Acinetobacter, read-out: MIC Min): 32 µg/mL
